According to ChEMBL document CHEMBL1139429, “2-Thiazolylimino/heteroarylimino-5-arylidene-4-thiazolidinones as new agents with SHP-2 inhibitory action” (J Med Chem, 2008):

Biological target: T1, Tyrosine-protein phosphatase non-receptor type 11 (Homo sapiens, UniProt Q06124)
T1 sequence (Q06124 whole entry): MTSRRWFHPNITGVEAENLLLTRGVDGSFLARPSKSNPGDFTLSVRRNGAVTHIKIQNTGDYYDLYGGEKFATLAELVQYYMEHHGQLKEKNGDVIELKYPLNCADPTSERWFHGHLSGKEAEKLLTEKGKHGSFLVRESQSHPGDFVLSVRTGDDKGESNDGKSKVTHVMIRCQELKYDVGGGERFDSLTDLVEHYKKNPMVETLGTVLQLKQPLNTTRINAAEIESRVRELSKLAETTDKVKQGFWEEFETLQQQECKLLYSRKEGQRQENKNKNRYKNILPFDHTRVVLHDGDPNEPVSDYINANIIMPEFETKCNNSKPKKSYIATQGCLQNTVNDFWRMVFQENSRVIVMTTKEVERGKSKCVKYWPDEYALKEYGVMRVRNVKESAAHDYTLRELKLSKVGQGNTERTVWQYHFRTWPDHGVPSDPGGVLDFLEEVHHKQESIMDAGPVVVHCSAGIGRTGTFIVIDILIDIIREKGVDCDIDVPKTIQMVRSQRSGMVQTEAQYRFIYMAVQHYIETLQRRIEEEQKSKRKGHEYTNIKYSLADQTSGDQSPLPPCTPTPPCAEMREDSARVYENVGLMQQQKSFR
Assay: Inhibition of human recombinant GST-fused SHP2 using p-nitrophenyl phosphate as substrate

## O=C1N/C(=N\c2nccs2)S/C1=C/c1cccc(Cl)c1
  Ki: 1090 µM

## COc1cc(/C=C2/S/C(=N/c3nc(C45CC6CC(CC(C6)C4)C5)cs3)NC2=O)ccc1O
  Ki: 12.3 µM

## O=C1N/C(=N\c2nccs2)S/C1=C/c1ccc([N+](=O)[O-])cc1
  Ki: 474 µM

## COc1ccc(/C=C2/S/C(=N\c3nsc4ccccc34)NC2=O)cc1
  Ki: 22.8 µM

## COc1cc(/C=C2/S/C(=N\c3nsc4ccccc34)NC2=O)ccc1O
  Ki: 90.8 µM

## O=C1N/C(=N\c2nc3ccccc3s2)S/C1=C/c1cccc([N+](=O)[O-])c1
  Ki: 28.7 µM

## COc1cc(/C=C2/S/C(=N/c3nc4ccccc4s3)NC2=O)cc(OC)c1O
  Ki: 18.1 µM

## COc1cc(/C=C2/S/C(=N/c3nc4ccc([N+](=O)[O-])cc4s3)NC2=O)cc(OC)c1O
  Ki: 12.9 µM

## COc1cc(/C=C2/S/C(=N/c3nc(-c4ccccc4)cs3)NC2=O)ccc1O
  Ki: 103 µM

## COc1ccc(/C=C2/S/C(=N/c3nccs3)NC2=O)cc1
  Ki: 11.7 µM
